Measured values: ChEMBL document CHEMBL1151554, “Non thiazolidinedione antihyperglycaemic agents. 1: -Heteroatom substituted -phenylpropanoic acids” (Bioorg Med Chem Lett, 1996)

What follows are compounds tested on Mus musculus (assay: In vivo inhibition of glucose load induced hyperglycaemia in fasted C57B1/6 ob/ob mice.).
Format: functional
`COC(=O)C(Br)Cc1ccc(OCCN(C)c2nc3ccccc3o2)cc1` (stereo unspecified) gave an ED25 of 100 µM/kg.
For `CCCOC(Cc1ccc(OCCN(C)c2nc3ccccc3o2)cc1)C(=O)[O-].[Na+]` (stereo unspecified), the ED25 was 0.3 µM/kg.
`CN(CCOc1ccc(CC(Sc2ccccc2)C(=O)O)cc1)c1nc2ccccc2o1` (stereo unspecified) was tested, and the ED25 was 30 µM/kg.
With `COC(=O)C(Cc1ccc(OCCN(C)c2nc3ccccc3o2)cc1)N(C)C` (stereo unspecified) the ED25 was 1000 µM/kg.
Compound `CNC(Cc1ccc(OCCN(C)c2nc3ccccc3o2)cc1)C(=O)OC` (stereo unspecified) has an ED25 of 1000 µM/kg.
With `COC(=O)C(Cl)Cc1ccc(OCCN(C)c2nc3ccccc3o2)cc1` (stereo unspecified) the ED25 was 10 µM/kg.
`CN(CCOc1ccc(CC(S)C(=O)O)cc1)c1nc2ccccc2o1` (stereo unspecified) gave an ED25 of 300 µM/kg.
`COC(=O)C(Cc1ccc(OCCN(C)c2nc3ccccc3o2)cc1)Sc1ccccc1` (stereo unspecified) showed an ED25 of 30 µM/kg.
`CN(CCOc1ccc(CC(OCc2ccccc2)C(=O)[O-])cc1)c1nc2ccccc2o1.[Na+]` (stereo unspecified) showed an ED25 of 0.3 µM/kg.
`CN(CCOc1ccc(CC(OCCc2ccccc2)C(=O)O)cc1)c1nc2ccccc2o1` (stereo unspecified) was tested, and the ED25 was 1 µM/kg.
For `CN(CCOc1ccc(CC(Cl)C(=O)O)cc1)c1nc2ccccc2o1` (stereo unspecified), the ED25 was 10 µM/kg.
`CN(CCOc1ccc(CC(C(=O)O)S(=O)(=O)c2ccccc2)cc1)c1nc2ccccc2o1` (stereo unspecified) was tested, and the ED25 was 1000 µM/kg.
`CCOC(Cc1ccc(OCCN(C)c2nc3ccccc3o2)cc1)C(=O)O` (stereo unspecified) showed an ED25 of 0.1 µM/kg.
Compound `COC(=O)C(Cc1ccc(OCCN(C)c2nc3ccccc3o2)cc1)OC` (stereo unspecified) has an ED25 of 3 µM/kg.
In the case of `CN(CCOc1ccc(CC2SC(=O)NC2=O)cc1)c1nc2ccccc2o1` (stereo unspecified) [BRL-48482], the ED25 is reported as 3 µM/kg.
Work on `Cc1c(C)c2c(c(C)c1O)CCC(C)(COc1ccc(CC3SC(=O)NC3=O)cc1)O2` (stereo unspecified) [TROGLITAZONE] yielded an ED25 of 400 µM/kg.
`COC(Cc1ccc(OCCN(C)c2nc3ccccc3o2)cc1)C(=O)O` (stereo unspecified) was tested, and the ED25 was 3 µM/kg.
For `CN(CCOc1ccc(CC(Nc2ccccc2)C(=O)O)cc1)c1nc2ccccc2o1` (stereo unspecified), the ED25 was 30 µM/kg.
`CN(CCOc1ccc(CC(Oc2ccccc2)C(=O)O)cc1)c1nc2ccccc2o1` (stereo unspecified) was tested, and the ED25 was 1 µM/kg.
`COC(=O)C(Cc1ccc(OCCN(C)c2nc3ccccc3o2)cc1)SC` (stereo unspecified) was tested, and the ED25 was 100 µM/kg.
`CN(CCOc1ccc(CC(F)C(=O)O)cc1)c1nc2ccccc2o1` (stereo unspecified) was tested, and the ED25 was 10 µM/kg.
With `COC(=O)CCc1ccc(OCCN(C)c2nc3ccccc3o2)cc1` the ED25 was >2000 µM/kg.
In the case of `COC(=O)C(Cc1ccc(OCCN(C)c2nc3ccccc3o2)cc1)OC(C)C` (stereo unspecified), the ED25 is reported as <0.3 µM/kg.

These compounds were tested against T1, Peroxisome proliferator-activated receptor gamma (Homo sapiens, UniProt P37231).
T1 sequence (P37231 whole entry): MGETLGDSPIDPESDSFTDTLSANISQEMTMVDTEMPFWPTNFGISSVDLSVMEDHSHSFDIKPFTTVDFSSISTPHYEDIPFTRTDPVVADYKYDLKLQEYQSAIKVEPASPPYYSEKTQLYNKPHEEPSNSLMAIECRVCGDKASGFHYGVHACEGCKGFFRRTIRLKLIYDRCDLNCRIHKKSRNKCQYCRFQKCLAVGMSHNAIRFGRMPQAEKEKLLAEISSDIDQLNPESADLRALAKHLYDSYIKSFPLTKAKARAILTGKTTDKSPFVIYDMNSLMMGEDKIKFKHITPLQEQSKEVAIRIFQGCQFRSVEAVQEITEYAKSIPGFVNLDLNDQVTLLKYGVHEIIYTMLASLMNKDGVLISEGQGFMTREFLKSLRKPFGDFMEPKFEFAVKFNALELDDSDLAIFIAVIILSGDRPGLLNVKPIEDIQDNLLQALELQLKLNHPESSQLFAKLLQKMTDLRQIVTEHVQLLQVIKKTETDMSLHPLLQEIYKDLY
Description: inhibition of [125I]SB 236636 binding to human PPAR gamma receptor
In the case of `CN(CCOc1ccc(CC(Sc2ccccc2)C(=O)O)cc1)c1nc2ccccc2o1` (stereo unspecified), the Ki is reported as 37 nM.
`CN(CCOc1ccc(CC(Oc2ccccc2)C(=O)O)cc1)c1nc2ccccc2o1` (stereo unspecified) was tested, and the Ki was 0.4 nM.

The compounds below were run against T2, Peroxisome proliferator-activated receptor gamma (Homo sapiens) (UniProt P37231).
T2 sequence (whole entry): T1 sequence (P37231 whole entry)
`COC(=O)C(Cc1ccc(OCCN(C)c2nc3ccccc3o2)cc1)N(C)C` (stereo unspecified) was tested, and the Displacement was 26%.
